pIC50: −log10 of the molar value.
What was measured:
[1] = test system: MOLM-14 D835Y cells, FLT3 ITD and FLT3 D835Y; assay: Cell proliferation assay (CellTiter-Glo), MOLM-14 D835Y; assay type: cell-based; conditions: Homo sapiens, 72 h, 3d-Growth, GMean
Outline: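 Three-day growth at 37 °C, 5% CO2 under compound (1 μM top final, 1:3 dilutions, eight points, 0.2% DMSO), read as ATP luminescence by CellTiter-Glo for IC50. Cells: MOLM-14 with FLT3 ITD plus D835Y or F691L, and IL-3-deprived Ba/F3 transfected with FLT3 ITD/D835Y, 1×10^4 per well.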

FLT3-D835Y = target: T1, FLT3-D835Y (Homo sapiens, UniProt P36888, D835Y); assay: AlphaScreen kinase assay with recombinant enzyme, FLT3-D835Y; assay type: biochemical; conditions: 8pt, GMean
T1 construct: purchased Invitrogen PV3967
T1 sequence (P36888 27-993 D835Y): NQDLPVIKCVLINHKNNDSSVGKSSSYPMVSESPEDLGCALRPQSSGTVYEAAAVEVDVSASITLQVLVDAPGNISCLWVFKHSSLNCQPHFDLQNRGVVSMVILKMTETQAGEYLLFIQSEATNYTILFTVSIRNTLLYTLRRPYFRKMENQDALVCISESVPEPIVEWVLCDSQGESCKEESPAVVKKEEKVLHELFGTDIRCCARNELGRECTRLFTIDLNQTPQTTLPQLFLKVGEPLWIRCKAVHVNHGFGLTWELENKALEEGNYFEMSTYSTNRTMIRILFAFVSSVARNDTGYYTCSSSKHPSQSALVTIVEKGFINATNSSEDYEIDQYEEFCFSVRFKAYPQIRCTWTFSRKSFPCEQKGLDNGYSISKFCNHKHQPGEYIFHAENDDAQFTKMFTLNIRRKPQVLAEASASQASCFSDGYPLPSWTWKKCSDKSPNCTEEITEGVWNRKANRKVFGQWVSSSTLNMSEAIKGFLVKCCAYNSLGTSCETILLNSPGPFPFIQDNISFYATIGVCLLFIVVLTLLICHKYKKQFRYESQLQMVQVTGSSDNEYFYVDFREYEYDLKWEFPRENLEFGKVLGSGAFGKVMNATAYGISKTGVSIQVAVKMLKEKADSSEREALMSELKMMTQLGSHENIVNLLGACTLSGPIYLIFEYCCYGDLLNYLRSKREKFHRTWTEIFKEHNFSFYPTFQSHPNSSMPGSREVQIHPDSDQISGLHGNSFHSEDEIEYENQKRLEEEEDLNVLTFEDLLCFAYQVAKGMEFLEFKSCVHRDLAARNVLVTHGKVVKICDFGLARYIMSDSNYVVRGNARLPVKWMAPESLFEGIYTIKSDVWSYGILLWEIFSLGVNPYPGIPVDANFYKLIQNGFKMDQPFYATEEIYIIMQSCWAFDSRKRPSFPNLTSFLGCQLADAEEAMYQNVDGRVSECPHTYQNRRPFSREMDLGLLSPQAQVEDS
Outline: (§1)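 Tyrosine phosphorylation of biotin-poly(Glu4-Tyr) substrate by recombinant enzyme is detected with PY20 acceptor and streptavidin donor beads after room-temperature incubations of 20 and 60 min. IC50 values were derived at a final 10 μM (FLT3-D835Y, FLT3-ITD) or 100 μM (c-KIT).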

c-KIT = target: T2, c-KIT (Homo sapiens, UniProt P10721); assay: AlphaScreen kinase assay with recombinant enzyme, c-KIT; assay type: biochemical; conditions: 100ATP, 8pt, GMean
T2 construct: purchased Millipore 14-559K
T2 sequence (P10721 26-976): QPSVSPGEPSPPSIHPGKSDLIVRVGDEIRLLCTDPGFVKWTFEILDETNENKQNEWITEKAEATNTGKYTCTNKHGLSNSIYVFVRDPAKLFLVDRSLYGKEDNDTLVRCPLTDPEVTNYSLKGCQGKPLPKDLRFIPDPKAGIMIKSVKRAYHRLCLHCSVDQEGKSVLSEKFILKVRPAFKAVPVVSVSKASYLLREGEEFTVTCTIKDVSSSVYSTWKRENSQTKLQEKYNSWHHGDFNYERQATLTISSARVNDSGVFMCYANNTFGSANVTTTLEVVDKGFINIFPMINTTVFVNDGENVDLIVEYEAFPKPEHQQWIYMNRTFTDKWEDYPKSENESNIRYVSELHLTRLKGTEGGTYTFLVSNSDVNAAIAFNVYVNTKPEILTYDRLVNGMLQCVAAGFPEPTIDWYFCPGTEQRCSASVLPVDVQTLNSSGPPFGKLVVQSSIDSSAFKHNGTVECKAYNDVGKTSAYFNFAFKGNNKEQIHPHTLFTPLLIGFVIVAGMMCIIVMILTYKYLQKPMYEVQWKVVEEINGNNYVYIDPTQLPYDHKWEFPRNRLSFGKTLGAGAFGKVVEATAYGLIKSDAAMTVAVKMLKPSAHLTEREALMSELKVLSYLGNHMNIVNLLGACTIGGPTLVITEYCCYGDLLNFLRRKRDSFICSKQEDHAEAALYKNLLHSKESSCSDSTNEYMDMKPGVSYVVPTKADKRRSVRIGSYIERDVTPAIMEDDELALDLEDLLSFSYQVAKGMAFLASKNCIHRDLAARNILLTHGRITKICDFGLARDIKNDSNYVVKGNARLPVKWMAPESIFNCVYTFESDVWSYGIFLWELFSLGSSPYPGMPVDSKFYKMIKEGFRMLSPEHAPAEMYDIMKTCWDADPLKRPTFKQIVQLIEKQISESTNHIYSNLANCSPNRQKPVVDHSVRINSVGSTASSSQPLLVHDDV
Outline: as §1

Row | SMILES | pIC50 [1] | pIC50 (FLT3-D835Y) | pIC50 (c-KIT)
1 | CNC1CN(C(=O)c2cccc(-c3cnc4[nH]c(-c5ccccc5)cc4c3)n2)C1 [Compound P-0052, [3-(methylamino)azetidin-1-yl]-[6-(2-phenyl-1H-pyrrolo[2,3-b]pyridin-5-yl)-2-pyridyl]methanone] | 5.00 to 10.00 | 5.00 to 10.00 | 5.00 to 10.00
2 | N[C@H]1CCN(C(=O)c2ncc(-c3cnc4[nH]c(-c5ccccc5)cc4c3)s2)C1 [Compound P-0054, [(3S)-3-aminopyrrolidin-1-yl]-[5-(2-phenyl-1H-pyrrolo[2,3-b]pyridin-5-yl)thiazol-2-yl]methanone] |  | 5.00 to 10.00 | 5.00 to 10.00
3 | CNC1CCN(C(=O)c2cccc(-c3cnc4[nH]c(-c5ccc(F)cc5)cc4c3)n2)C1 (stereo not drawn) [Compound P-0055, [6-[2-(4-fluorophenyl)-1H-pyrrolo[2,3-b]pyridin-5-yl]-2-pyridyl]-[3-(methylamino)pyrrolidin-1-yl]methanone] | 5.00 to 10.00 | 5.00 to 10.00 | 5.00 to 10.00
4 | CN[C@@H]1CCN(C(=O)c2cccc(-c3cnc4[nH]c(-c5ccccc5)cc4c3)n2)C1 [Compound P-0058, [(3R)-3-(methylamino)pyrrolidin-1-yl]-[6-(2-phenyl-1H-pyrrolo[2,3-b]pyridin-5-yl)-2-pyridyl]methanone] | 5.00 to 10.00 | 5.00 to 10.00 | 5.00 to 10.00
5 | CNC1CCN(C(=O)c2cccc(-c3cnc4[nH]c(-c5ccnc(OC)c5)cc4c3)n2)C1 (stereo not drawn) [Compound P-0060, [6-[2-(2-methoxy-4-pyridyl)-1H-pyrrolo[2,3-b]pyridin-5-yl]-2-pyridyl]-[3-(methylamino)pyrrolidin-1-yl]methanone] | 5.00 to 10.00 | 5.00 to 10.00 | 5.00 to 10.00
6 | CC1(C#N)CCN(C(=O)c2cccc(-c3cnc4[nH]c(-c5ccccc5)cc4c3)n2)CC1 [Compound P-0094, 4-methyl-1-[6-(2-phenyl-1H-pyrrolo[2,3-b]pyridin-5-yl)pyridine-2-carbonyl]piperidine-4-carbonitrile] |  | 5.00 to 10.00 | 4.00 to 4.30
7 | COC1CCN(C(=O)c2cccc(-c3cnc4[nH]c(-c5ccccc5)cc4c3)n2)CC1 [Compound P-0098, (4-methoxy-1-piperidyl)-[6-(2-phenyl-1H-pyrrolo[2,3-b]pyridin-5-yl)-2-pyridyl]methanone] |  | 5.00 to 10.00 | 4.00 to 4.30
8 | CS(=O)(=O)NC1CCN(C(=O)c2cccc(-c3cnc4[nH]c(-c5ccccc5)cc4c3)n2)C1 (stereo not drawn) [Compound P-0101, N-[1-[6-(2-phenyl-1H-pyrrolo[2,3-b]pyridin-5-yl)pyridine-2-carbonyl]pyrrolidin-3-yl]methanesulfonamide] |  | 5.00 to 10.00 | 4.00 to 4.30
9 | O=C(c1cccc(-c2cnc3[nH]c(-c4ccccc4)cc3c2)n1)N1CCC(N2CCOCC2)C1 (stereo not drawn) [Compound P-0102, (3-morpholinopyrrolidin-1-yl)-[6-(2-phenyl-1H-pyrrolo[2,3-b]pyridin-5-yl)-2-pyridyl]methanone] |  | 5.00 to 10.00 | 4.00 to 4.30
10 | O=C(c1cccc(-c2cnc3[nH]c(-c4ccccc4)cc3c2)n1)N1CCC(C(F)(F)F)C1 (stereo not drawn) [Compound P-0103, [6-(2-phenyl-1H-pyrrolo[2,3-b]pyridin-5-yl)-2-pyridyl]-[3-(trifluoromethyl)pyrrolidin-1-yl]methanone] |  | 5.00 to 10.00 | 4.00 to 4.30
11 | CN(C)C1CCN(C(=O)c2cccc(-c3cnc4[nH]c(-c5ccccc5)cc4c3)n2)C1 (stereo not drawn) [Compound P-0104, [3-(dimethylamino)pyrrolidin-1-yl]-[6-(2-phenyl-1H-pyrrolo[2,3-b]pyridin-5-yl)-2-pyridyl]methanone] |  | 5.00 to 10.00 | 5.00 to 10.00
12 | N#CC1CCN(C(=O)c2cccc(-c3cnc4[nH]c(-c5ccc(F)cc5)cc4c3)n2)C1 (stereo not drawn) [Compound P-0116, 1-[6-[2-(4-fluorophenyl)-1H-pyrrolo[2,3-b]pyridin-5-yl]pyridine-2-carbonyl]pyrrolidine-3-carbonitrile] |  | 5.00 to 10.00 | 5.00 to 10.00

Next, values leading:

Row | pIC50 [1] | pIC50 (FLT3-D835Y) | pIC50 (c-KIT) | SMILES
13 | 5.00 to 10.00 | 5.00 to 10.00 | 5.00 to 10.00 | NC1CCN(C(=O)c2n[nH]c3ccc(-c4cnc5[nH]c(-c6ccccc6)cc5c4)cc23)CC1 [Compound P-0012, (4-amino-1-piperidyl)-[5-(2-phenyl-1H-pyrrolo[2,3-b]pyridin-5-yl)-1H-indazol-3-yl]methanone]
14 | 5.00 to 10.00 | 5.00 to 10.00 | 5.00 to 10.00 | NC1CCN(C(=O)c2cccc(-c3cnc4[nH]c(-c5ccccc5)cc4c3)n2)CC1 [Compound P-0013, (4-amino-1-piperidyl)-[6-(2-phenyl-1H-pyrrolo[2,3-b]pyridin-5-yl)-2-pyridyl]methanone]
15 | 5.00 to 10.00 | 5.00 to 10.00 | 5.00 to 10.00 | NC1CCC(NC(=O)c2cccc(-c3cnc4[nH]c(-c5ccccc5)cc4c3)n2)CC1 (stereo not drawn) [Compound P-0018, N-(4-aminocyclohexyl)-6-(2-phenyl-1H-pyrrolo[2,3-b]pyridin-5-yl)pyridine-2-carboxamide]
16 |  | 5.00 to 10.00 | 5.00 to 10.00 | CN1CCC(NC(=O)c2n[nH]c3ccc(-c4cnc5[nH]c(-c6ccccc6)cc5c4)cc23)CC1 [Compound P-0022, N-(1-methyl-4-piperidyl)-5-(2-phenyl-1H-pyrrolo[2,3-b]pyridin-5-yl)-1H-indazole-3-carboxamide]
17 |  | 5.00 to 10.00 | 4.00 to 4.30 | O=C(c1cccc(-c2cnc3[nH]c(-c4ccccc4)cc3c2)n1)N1CCC(CO)CC1 [Compound P-0023, [4-(hydroxymethyl)-1-piperidyl]-[6-(2-phenyl-1H-pyrrolo[2,3-b]pyridin-5-yl)-2-pyridyl]methanone]
18 |  | 5.00 to 10.00 | 5.00 to 10.00 | CCOC(=O)C1CCN(C(=O)c2cccc(-c3cnc4[nH]c(-c5ccccc5)cc4c3)n2)CC1 [Compound P-0025, ethyl 1-[6-(2-phenyl-1H-pyrrolo[2,3-b]pyridin-5-yl)pyridine-2-carbonyl]piperidine-4-carboxylate]
19 |  | 5.00 to 10.00 | 5.00 to 10.00 | NCC1CCN(C(=O)c2cccc(-c3cnc4[nH]c(-c5ccccc5)cc4c3)n2)CC1 [Compound P-0026, [4-(aminomethyl)-1-piperidyl]-[6-(2-phenyl-1H-pyrrolo[2,3-b]pyridin-5-yl)-2-pyridyl]methanone]
20 |  | 5.00 to 10.00 | 4.00 to 4.30 | CC1CCN(C(=O)c2n[nH]c3ccc(-c4cnc5[nH]c(-c6ccccc6)cc5c4)cc23)CC1 [Compound P-0027, (4-methyl-1-piperidyl)-[5-(2-phenyl-1H-pyrrolo[2,3-b]pyridin-5-yl)-1H-indazol-3-yl]methanone]
21 |  | 5.00 to 10.00 | 5.00 to 10.00 | CNC1CCN(C(=O)c2n[nH]c3ccc(-c4cnc5[nH]c(-c6ccccc6)cc5c4)cc23)C1 (stereo not drawn) [Compound P-0028, [3-(methylamino)pyrrolidin-1-yl]-[5-(2-phenyl-1H-pyrrolo[2,3-b]pyridin-5-yl)-1H-indazol-3-yl]methanone]
22 | 5.00 to 10.00 | 5.00 to 10.00 | 5.00 to 10.00 | CNC1CCN(C(=O)c2cccc(-c3cnc4[nH]c(-c5ccccc5)cc4c3)n2)C1 (stereo not drawn) [Compound P-0040, [3-(methylamino)pyrrolidin-1-yl]-[6-(2-phenyl-1H-pyrrolo[2,3-b]pyridin-5-yl)-2-pyridyl]methanone]
23 | 5.00 to 10.00 | 5.00 to 10.00 | 5.00 to 10.00 | CNC1CCN(C(=O)c2cccc(-c3cnc4[nH]c(-c5cn(C)nc5C)cc4c3)n2)C1 (stereo not drawn) [Compound P-0049, [6-[2-(1,3-dimethylpyrazol-4-yl)-1H-pyrrolo[2,3-b]pyridin-5-yl]-2-pyridyl]-[3-(methylamino)pyrrolidin-1-yl]methanone]
24 |  | 5.00 to 10.00 | 5.00 to 10.00 | c1ccc(-c2cc3cc(-c4cccc(OC5CCNCC5)n4)cnc3[nH]2)cc1 [Compound P-0050, 2-phenyl-5-[6-(4-piperidyloxy)-2-pyridyl]-1H-pyrrolo[2,3-b]pyridine]

Source: patent US9938273B2 (Plexxikon Inc., priority 2015, dated 2018)
